Experimental data taken from patent US10294202B2, “Pyrrolidinones as herbicides” (FMC Corporation, priority 2013, dated 2019).

How the values were obtained:
johnsongrass = assay: Test E preemergence herbicide test; type: in vivo, Sorghum halepense; set-up: key: 0 = no effect, 100 = complete control
From the text: (§1) Seeds of plant species selected from corn (Zea mays), soybean (Glycine max), velvetleaf (Abutilon theophrasti), lambsquarters (Chenopodium album), wild poinsettia (Euphorbia heterophylla), pigweed, palmer (palmer pigweed, Amaranthus palmeri), waterhemp (common waterhemp, Amaranthus rudis), surinam grass (Brachiaria decumbens), crabgrass, large (large crabgrass, Digitaria sanguinalis), crabgrass, Brazil (Brazilian crabgrass, Digitaria horizontalis), panicum, fall (fall panicum, Panicum dichotomiflorum), foxtail, giant (giant foxtail, Setaria faberii), foxtail, green (green foxtail, Setaria viridis), goosegrass (Eleusine indica), johnsongrass (Sorghum halepense), ragweed (common ragweed, Ambrosia elatior), barnyardgrass (Echinochloa crus-galli), sandbur (southern sandbur, Cenchrus echinatus), arrowleaf […] rhombifolia), ryegrass, Italian (Italian ryegrass, Lolium multiflorum), dayflower, VA (Virginia dayflower, Commelina virginica), field bindweed (Convolvulus arvensis), morningglory (Ipomoea coccinea), nightshade (eastern black nightshade, Solanum ptycanthum), kochia (Kochia scoparia), nutsedge, yellow (yellow nutsedge, Cyperus esculentus), cocklebur (common cocklebur, Xanthium strumarium), smartweed (ladysthumb smartweed, Polygonum Persicaria) and beggarticks (hairy beggarticks, Bidens pilosa), were planted into a silt loam soil and treated preemergence with test chemicals formulated in a non-phytotoxic solvent mixture which included a surfactant. Treated plants and controls were maintained in a greenhouse for 21 days, after which time all species were compared to controls and visually evaluated. Plant response ratings, summarized in Table E, are based on a scale of 0 to 100 where 0 is no effect and 100 is complete control. A dash (-) response means no test result.

foxtail, green [1] = assay: Test E preemergence herbicide test; type: in vivo, Setaria viridis; set-up: key: 0 = no effect, 100 = complete control
From the text: as §1

galium = assay: Test D pre-/postemergence herbicide test; type: in vivo, Galium aparine; conditions: for Plant response rating: Galium, scale 0 to 100; for Plant response rating, Galium: scale 0 to 100 (0 no effect, 100 complete control)
Procedure, shortened: (§2)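 Test chemicals, formulated in a non-phytotoxic solvent mixture with surfactant, are sprayed preemergence onto seeds in silt loam and postemergence onto plants of 2–18 cm. Plants are held in a controlled growth environment for 7 to 21 days, then rated visually versus controls (0–100).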

deadnettle = assay: Test D pre-/postemergence herbicide test; type: in vivo, Lamium amplexicaule; conditions: for Plant response rating: Deadnettle, scale 0 to 100; for Plant response rating, Deadnettle: scale 0 to 100 (0 no effect, 100 complete control)
Procedure, shortened: as §2

bromegrass, downy = assay: Test D pre-/postemergence herbicide test; type: in vivo, Bromus tectorum; conditions: for Plant response rating: Bromegrass, Downy, scale 0 to 100; for Plant response rating, Bromegrass, Downy: scale 0 to 100 (0 no effect, 100 complete control)
Procedure, shortened: as §2

buckwheat, wild = assay: Test D pre-/postemergence herbicide test; type: in vivo, Polygonum convolvulus; conditions: for Plant response rating: Buckwheat, Wild, scale 0 to 100; for Plant response rating, Buckwheat, Wild: scale 0 to 100 (0 no effect, 100 complete control)
Procedure, shortened: as §2

blackgrass = assay: Test D pre-/postemergence herbicide test; type: in vivo, Alopecurus myosuroides; conditions: for Plant response rating: Blackgrass, scale 0 to 100; for Plant response rating, Blackgrass: scale 0 to 100 (0 no effect, 100 complete control)
Procedure, shortened: as §2

bluegrass = assay: Test D pre-/postemergence herbicide test; type: in vivo, Poa annua; conditions: for Plant response rating: Bluegrass, scale 0 to 100; for Plant response rating, Bluegrass: scale 0 to 100 (0 no effect, 100 complete control)
Procedure, shortened: as §2

foxtail, green [2] = assay: Test D pre-/postemergence herbicide test; type: in vivo, Setaria viridis; conditions: for Plant response rating: Foxtail, Green, scale 0 to 100; for Plant response rating, Foxtail, Green: scale 0 to 100 (0 no effect, 100 complete control)
Procedure, shortened: as §2

## O=C1NCC(c2ccc(Cl)c(Cl)c2)C1C(=O)Nc1ccccc1F (racemic) [Compound 14]
johnsongrass; 16 g ai/ha
  Plant response rating, Johnsongrass: 0
johnsongrass; 31 g ai/ha
  Plant response rating, Johnsongrass: 0
johnsongrass; 62 g ai/ha
  Plant response rating, Johnsongrass: 0
johnsongrass; 125 g ai/ha
  Plant response rating, Johnsongrass: 0
johnsongrass; 250 g ai/ha
  Plant response rating, Johnsongrass: 0
foxtail, green [1]; 16 g ai/ha
  Plant response rating, Foxtail, Green: 0
foxtail, green [1]; 31 g ai/ha
  Plant response rating, Foxtail, Green: 0
foxtail, green [1]; 62 g ai/ha
  Plant response rating, Foxtail, Green: 0
foxtail, green [1]; 125 g ai/ha
  Plant response rating, Foxtail, Green: 10
foxtail, green [1]; 250 g ai/ha
  Plant response rating, Foxtail, Green: 70

## O=C1NCC(c2ccc(C(F)(F)F)cc2)C1C(=O)Nc1cccc(F)c1F (racemic) [Compound 202]
galium; Postemergence, 31 g ai/ha
  Plant response rating: 60
galium; Postemergence, 62 g ai/ha
  Plant response rating: 70
galium; Postemergence, 125 g ai/ha
  Plant response rating: 70
galium; Postemergence, 250 g ai/ha
  Plant response rating: 70
galium; Preemergence, 62 g ai/ha
  Plant response rating, Galium: 70
galium; Preemergence, 31 g ai/ha
  Plant response rating, Galium: 75
galium; Preemergence, 125 g ai/ha
  Plant response rating: 80
galium; Preemergence, 250 g ai/ha
  Plant response rating: 85
deadnettle; Postemergence, 31 g ai/ha
  Plant response rating: 5
deadnettle; Postemergence, 62 g ai/ha
  Plant response rating: 35
deadnettle; Postemergence, 125 g ai/ha
  Plant response rating: 60
deadnettle; Postemergence, 250 g ai/ha
  Plant response rating: 70
deadnettle; Preemergence, 62 g ai/ha
  Plant response rating, Deadnettle: 65
deadnettle; Preemergence, 31 g ai/ha
  Plant response rating, Deadnettle: 40
deadnettle; Preemergence, 125 g ai/ha
  Plant response rating: 80
deadnettle; Preemergence, 250 g ai/ha
  Plant response rating: 85
bromegrass, downy; Postemergence, 31 g ai/ha
  Plant response rating: 0
bromegrass, downy; Postemergence, 62 g ai/ha
  Plant response rating: 0
bromegrass, downy; Postemergence, 125 g ai/ha
  Plant response rating: 5
bromegrass, downy; Postemergence, 250 g ai/ha
  Plant response rating: 15
bromegrass, downy; Preemergence, 62 g ai/ha
  Plant response rating, Bromegrass, Downy: 0
bromegrass, downy; Preemergence, 31 g ai/ha
  Plant response rating, Bromegrass, Downy: 0
bromegrass, downy; Preemergence, 125 g ai/ha
  Plant response rating: 0
bromegrass, downy; Preemergence, 250 g ai/ha
  Plant response rating: 20
johnsongrass; 31 g ai/ha
  Plant response rating, Johnsongrass: 0
johnsongrass; 62 g ai/ha
  Plant response rating, Johnsongrass: 0
johnsongrass; 125 g ai/ha
  Plant response rating, Johnsongrass: 20
johnsongrass; 250 g ai/ha
  Plant response rating, Johnsongrass: 25
foxtail, green [1]; 31 g ai/ha
  Plant response rating, Foxtail, Green: 10
foxtail, green [1]; 62 g ai/ha
  Plant response rating, Foxtail, Green: 75
foxtail, green [1]; 125 g ai/ha
  Plant response rating, Foxtail, Green: 98
foxtail, green [1]; 250 g ai/ha
  Plant response rating, Foxtail, Green: 98
buckwheat, wild; Postemergence, 31 g ai/ha
  Plant response rating: 0
buckwheat, wild; Postemergence, 62 g ai/ha
  Plant response rating: 0
buckwheat, wild; Postemergence, 125 g ai/ha
  Plant response rating: 0
buckwheat, wild; Postemergence, 250 g ai/ha
  Plant response rating: 10
buckwheat, wild; Preemergence, 62 g ai/ha
  Plant response rating, Buckwheat, Wild: 10
buckwheat, wild; Preemergence, 31 g ai/ha
  Plant response rating, Buckwheat, Wild: 0
buckwheat, wild; Preemergence, 125 g ai/ha
  Plant response rating: 10
buckwheat, wild; Preemergence, 250 g ai/ha
  Plant response rating: 15
blackgrass; Postemergence, 31 g ai/ha
  Plant response rating: 0
blackgrass; Postemergence, 62 g ai/ha
  Plant response rating: 5
blackgrass; Postemergence, 125 g ai/ha
  Plant response rating: 10
blackgrass; Postemergence, 250 g ai/ha
  Plant response rating: 40
blackgrass; Preemergence, 62 g ai/ha
  Plant response rating, Blackgrass: 35
blackgrass; Preemergence, 31 g ai/ha
  Plant response rating, Blackgrass: 30
blackgrass; Preemergence, 125 g ai/ha
  Plant response rating: 65
blackgrass; Preemergence, 250 g ai/ha
  Plant response rating: 75
bluegrass; Postemergence, 31 g ai/ha
  Plant response rating: 0
bluegrass; Postemergence, 62 g ai/ha
  Plant response rating: 10
bluegrass; Postemergence, 125 g ai/ha
  Plant response rating: 10
bluegrass; Postemergence, 250 g ai/ha
  Plant response rating: 15
bluegrass; Preemergence, 62 g ai/ha
  Plant response rating, Bluegrass: 25
bluegrass; Preemergence, 31 g ai/ha
  Plant response rating, Bluegrass: 10
bluegrass; Preemergence, 125 g ai/ha
  Plant response rating: 65
bluegrass; Preemergence, 250 g ai/ha
  Plant response rating: 70
foxtail, green [2]; Postemergence, 31 g ai/ha
  Plant response rating: 60
foxtail, green [2]; Postemergence, 62 g ai/ha
  Plant response rating: 65
foxtail, green [2]; Postemergence, 125 g ai/ha
  Plant response rating: 70
foxtail, green [2]; Postemergence, 250 g ai/ha
  Plant response rating: 70
foxtail, green [2]; Preemergence, 62 g ai/ha
  Plant response rating, Foxtail, Green: 90
foxtail, green [2]; Preemergence, 31 g ai/ha
  Plant response rating, Foxtail, Green: 90
foxtail, green [2]; Preemergence, 125 g ai/ha
  Plant response rating: 98
foxtail, green [2]; Preemergence, 250 g ai/ha
  Plant response rating: 95

## O=C1NCC(c2ccc(OC(F)F)cc2)C1C(=O)Nc1cccc(F)c1F (racemic) [Compound 350]
johnsongrass; 31 g ai/ha
  Plant response rating, Johnsongrass: 0
johnsongrass; 62 g ai/ha
  Plant response rating, Johnsongrass: 0
johnsongrass; 125 g ai/ha
  Plant response rating, Johnsongrass: 0
johnsongrass; 250 g ai/ha
  Plant response rating, Johnsongrass: 0
foxtail, green [1]; 31 g ai/ha
  Plant response rating, Foxtail, Green: 20
foxtail, green [1]; 62 g ai/ha
  Plant response rating, Foxtail, Green: 35
foxtail, green [1]; 125 g ai/ha
  Plant response rating, Foxtail, Green: 80
foxtail, green [1]; 250 g ai/ha
  Plant response rating, Foxtail, Green: 85
